Laboratory results: patent US20070136834A1, “Method and system for real-time analysis of biosensor data” (priority 2005, published 2007)

Test system: naturally-occurring algae
Assay: Variable chlorophyll fluorescence induction of naturally-occurring algae in Clinch River water, differential displacement (least-squares) analysis against control curve
Type: cell-based
Excerpt: Primary-source drinking water is monitored at regular intervals, for example every three to five minutes. • 2. Each (analog) chlorophyll fluorescence induction curve that is acquired for each interval is digitized and stored. The shape of each curve is a recording of the physiological status of the algae at that point in time. • 3. For each subsequent recording, such as three to five minutes later, the variable chlorophyll fluorescence induction curve at that time can be compared with the curve that was recorded three to five minutes earlier. • 4. By using a nonlinear least-squares fit of the current data with the previous curve, a quantitative assessment can be made that determines the degree of departure of the current curve as compared to its predecessor. • 5. Based on an algorithm, such as algorithms described herein, an objective real-time assessment of the degree of departure is obtained between the variable fluorescence curves and the correlation of that departure with the possible presence of toxins in the water.
Data analysis typically comprises three steps. […] Third, the set of numbers that comprises the transformation coefficient is analyzed for specific patterns analyzed by custom software to detect “fingerprints” for specific toxins such as chemical toxins. […]

COP(=S)(OC)Oc1ccc([N+](=O)[O-])cc1 [methyl parathion]
effect on shape of variable fluorescence induction curve: change the shape of the variable fluorescence induction curve
